Measurements: publication PMC5540273, “Progress towards a public chemogenomic set for protein kinases and a call for contributions” (PLoS ONE, 2017)

How the values were obtained:
Assay in all cases: KINOMEscan competition binding
DMPK = biological target: T1, DMPK (Homo sapiens, UniProt Q09013); settings: read-out: %Inh DMPK
T1 sequence (Q09013 1-629): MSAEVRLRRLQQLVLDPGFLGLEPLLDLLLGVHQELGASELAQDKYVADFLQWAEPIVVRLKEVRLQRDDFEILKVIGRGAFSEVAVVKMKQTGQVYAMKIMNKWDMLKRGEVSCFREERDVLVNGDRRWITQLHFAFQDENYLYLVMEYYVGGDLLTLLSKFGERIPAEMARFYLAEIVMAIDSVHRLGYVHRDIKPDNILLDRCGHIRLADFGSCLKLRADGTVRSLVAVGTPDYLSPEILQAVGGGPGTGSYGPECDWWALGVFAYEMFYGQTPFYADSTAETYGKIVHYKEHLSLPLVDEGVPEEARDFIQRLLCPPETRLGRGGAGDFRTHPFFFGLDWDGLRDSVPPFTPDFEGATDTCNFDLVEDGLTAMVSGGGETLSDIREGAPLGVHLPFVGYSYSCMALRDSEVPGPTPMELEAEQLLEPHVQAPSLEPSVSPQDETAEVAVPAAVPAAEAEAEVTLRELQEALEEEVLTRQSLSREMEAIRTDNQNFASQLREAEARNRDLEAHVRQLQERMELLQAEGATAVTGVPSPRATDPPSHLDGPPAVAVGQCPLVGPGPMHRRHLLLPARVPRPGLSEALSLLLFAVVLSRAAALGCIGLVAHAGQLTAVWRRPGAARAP

GRK4 = GRK4 (Homo sapiens, UniProt P32298); settings: read-out: %Inh GRK4
Sequence of GRK4 (P32298 whole entry): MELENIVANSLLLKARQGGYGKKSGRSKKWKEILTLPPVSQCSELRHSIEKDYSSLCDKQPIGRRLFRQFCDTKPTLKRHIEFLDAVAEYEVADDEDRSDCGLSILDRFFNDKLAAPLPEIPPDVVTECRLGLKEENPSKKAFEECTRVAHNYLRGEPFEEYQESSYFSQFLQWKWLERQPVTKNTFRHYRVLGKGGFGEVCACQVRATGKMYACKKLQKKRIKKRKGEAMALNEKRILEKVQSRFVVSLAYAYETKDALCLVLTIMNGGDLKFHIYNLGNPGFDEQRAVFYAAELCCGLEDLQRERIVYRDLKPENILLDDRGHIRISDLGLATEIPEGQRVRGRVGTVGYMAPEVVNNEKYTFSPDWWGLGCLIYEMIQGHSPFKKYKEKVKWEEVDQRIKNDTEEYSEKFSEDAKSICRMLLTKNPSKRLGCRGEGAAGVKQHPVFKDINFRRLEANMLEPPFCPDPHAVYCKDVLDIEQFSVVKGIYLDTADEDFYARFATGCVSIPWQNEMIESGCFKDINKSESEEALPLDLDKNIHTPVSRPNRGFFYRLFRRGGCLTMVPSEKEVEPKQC

CSF1R-autoinhibited = biological target: T2, CSF1R-autoinhibited (Homo sapiens, UniProt P07333); settings: read-out: %Inh CSF1R-autoinhibited
T2 sequence (P07333 539-972 limits assumed): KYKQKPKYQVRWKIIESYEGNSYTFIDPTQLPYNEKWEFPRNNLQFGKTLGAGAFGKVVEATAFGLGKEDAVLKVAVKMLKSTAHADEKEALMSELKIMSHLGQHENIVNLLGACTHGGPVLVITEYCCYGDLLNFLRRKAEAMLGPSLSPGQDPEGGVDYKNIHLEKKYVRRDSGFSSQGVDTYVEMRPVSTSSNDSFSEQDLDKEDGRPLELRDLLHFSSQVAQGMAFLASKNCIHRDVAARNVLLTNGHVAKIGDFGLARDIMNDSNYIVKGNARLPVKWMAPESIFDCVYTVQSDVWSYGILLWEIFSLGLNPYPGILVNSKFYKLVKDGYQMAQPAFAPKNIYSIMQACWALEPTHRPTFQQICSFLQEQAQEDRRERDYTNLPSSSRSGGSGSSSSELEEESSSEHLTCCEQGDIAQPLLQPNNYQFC

JNK1 = JNK1 (Homo sapiens, UniProt P45983); settings: read-out: %Inh JNK1
Sequence of JNK1 (P45983 whole entry): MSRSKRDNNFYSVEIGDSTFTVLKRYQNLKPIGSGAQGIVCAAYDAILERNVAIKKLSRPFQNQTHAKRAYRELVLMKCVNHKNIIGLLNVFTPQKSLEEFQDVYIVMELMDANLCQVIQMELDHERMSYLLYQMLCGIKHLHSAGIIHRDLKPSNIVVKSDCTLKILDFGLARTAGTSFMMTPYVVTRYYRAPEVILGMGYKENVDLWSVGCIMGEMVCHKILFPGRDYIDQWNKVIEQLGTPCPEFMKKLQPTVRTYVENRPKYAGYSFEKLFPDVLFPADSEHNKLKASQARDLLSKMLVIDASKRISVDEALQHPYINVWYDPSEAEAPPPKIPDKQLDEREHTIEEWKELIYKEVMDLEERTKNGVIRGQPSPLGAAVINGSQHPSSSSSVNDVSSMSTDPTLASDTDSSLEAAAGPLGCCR

DLK = biological target: T3, DLK (Homo sapiens, UniProt Q12852); settings: read-out: %Inh DLK
T3 sequence (Q12852 1-859): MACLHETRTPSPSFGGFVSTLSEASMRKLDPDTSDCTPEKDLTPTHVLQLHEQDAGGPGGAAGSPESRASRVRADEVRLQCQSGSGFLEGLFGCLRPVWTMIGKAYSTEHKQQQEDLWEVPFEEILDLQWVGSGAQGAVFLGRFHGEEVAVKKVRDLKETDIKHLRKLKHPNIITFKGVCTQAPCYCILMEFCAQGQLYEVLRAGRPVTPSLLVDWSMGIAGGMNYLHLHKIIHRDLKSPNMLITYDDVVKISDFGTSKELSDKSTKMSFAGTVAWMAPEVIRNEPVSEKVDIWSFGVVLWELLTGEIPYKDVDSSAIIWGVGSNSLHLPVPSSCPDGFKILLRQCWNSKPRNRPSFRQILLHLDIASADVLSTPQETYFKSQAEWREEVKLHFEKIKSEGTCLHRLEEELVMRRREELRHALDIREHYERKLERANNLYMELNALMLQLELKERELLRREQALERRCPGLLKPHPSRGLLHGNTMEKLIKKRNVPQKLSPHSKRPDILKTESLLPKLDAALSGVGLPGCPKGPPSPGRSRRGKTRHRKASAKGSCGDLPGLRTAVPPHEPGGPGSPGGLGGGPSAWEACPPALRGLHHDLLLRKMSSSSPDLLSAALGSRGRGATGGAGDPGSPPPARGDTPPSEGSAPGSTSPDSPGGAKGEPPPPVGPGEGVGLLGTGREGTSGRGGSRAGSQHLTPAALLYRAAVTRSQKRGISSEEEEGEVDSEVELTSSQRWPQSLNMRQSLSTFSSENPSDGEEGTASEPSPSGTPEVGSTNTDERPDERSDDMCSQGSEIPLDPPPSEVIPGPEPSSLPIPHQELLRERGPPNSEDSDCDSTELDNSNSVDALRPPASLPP

INSRR = INSRR (Homo sapiens, UniProt P14616); settings: read-out: %Inh INSRR
Sequence of INSRR (P14616 27-1297): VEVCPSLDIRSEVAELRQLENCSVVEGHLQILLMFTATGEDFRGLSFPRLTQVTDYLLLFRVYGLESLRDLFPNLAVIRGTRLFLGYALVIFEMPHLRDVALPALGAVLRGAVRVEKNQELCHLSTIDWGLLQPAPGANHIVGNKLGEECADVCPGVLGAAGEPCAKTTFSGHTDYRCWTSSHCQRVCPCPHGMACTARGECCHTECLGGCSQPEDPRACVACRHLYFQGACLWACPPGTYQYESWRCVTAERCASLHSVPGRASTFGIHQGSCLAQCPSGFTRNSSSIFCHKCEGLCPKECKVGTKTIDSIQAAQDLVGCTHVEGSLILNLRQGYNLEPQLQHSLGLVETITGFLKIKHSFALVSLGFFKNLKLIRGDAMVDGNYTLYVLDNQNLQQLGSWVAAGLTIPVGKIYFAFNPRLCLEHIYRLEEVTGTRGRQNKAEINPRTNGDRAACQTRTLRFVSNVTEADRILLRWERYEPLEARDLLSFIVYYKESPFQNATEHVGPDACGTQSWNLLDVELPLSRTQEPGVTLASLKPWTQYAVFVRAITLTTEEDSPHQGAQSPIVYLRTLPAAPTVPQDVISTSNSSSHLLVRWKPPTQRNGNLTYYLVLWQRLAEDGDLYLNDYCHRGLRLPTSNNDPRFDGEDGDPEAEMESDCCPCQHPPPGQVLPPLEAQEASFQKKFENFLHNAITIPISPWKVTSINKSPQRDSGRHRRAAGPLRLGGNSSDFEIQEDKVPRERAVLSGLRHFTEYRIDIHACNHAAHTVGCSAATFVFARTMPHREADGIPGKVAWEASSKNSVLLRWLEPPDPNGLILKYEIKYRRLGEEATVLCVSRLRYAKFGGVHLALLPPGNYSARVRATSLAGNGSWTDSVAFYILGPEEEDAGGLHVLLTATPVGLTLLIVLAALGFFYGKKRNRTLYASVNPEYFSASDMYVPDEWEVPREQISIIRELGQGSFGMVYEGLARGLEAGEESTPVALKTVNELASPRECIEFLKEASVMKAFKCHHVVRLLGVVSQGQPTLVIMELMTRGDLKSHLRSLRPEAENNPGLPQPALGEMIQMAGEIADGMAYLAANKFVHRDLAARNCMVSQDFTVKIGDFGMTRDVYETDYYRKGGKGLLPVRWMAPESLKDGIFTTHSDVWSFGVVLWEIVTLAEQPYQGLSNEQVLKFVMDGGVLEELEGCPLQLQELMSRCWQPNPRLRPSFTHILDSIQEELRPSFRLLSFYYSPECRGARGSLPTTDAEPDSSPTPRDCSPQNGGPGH

JNK3 = JNK3 (Homo sapiens, UniProt P53779); settings: read-out: %Inh JNK3
Sequence of JNK3 (P53779 whole entry): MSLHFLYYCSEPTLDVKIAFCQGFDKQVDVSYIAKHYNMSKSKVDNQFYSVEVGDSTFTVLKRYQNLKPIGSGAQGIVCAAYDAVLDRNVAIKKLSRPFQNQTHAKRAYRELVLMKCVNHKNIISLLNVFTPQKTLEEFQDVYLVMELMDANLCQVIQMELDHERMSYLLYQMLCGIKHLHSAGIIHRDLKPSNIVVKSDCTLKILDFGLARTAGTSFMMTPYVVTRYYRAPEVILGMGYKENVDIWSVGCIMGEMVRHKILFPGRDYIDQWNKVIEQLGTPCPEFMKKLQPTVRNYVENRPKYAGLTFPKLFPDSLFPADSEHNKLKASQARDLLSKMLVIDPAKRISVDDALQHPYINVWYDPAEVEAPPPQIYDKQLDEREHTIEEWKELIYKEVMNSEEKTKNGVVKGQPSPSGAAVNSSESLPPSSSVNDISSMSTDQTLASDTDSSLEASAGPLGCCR

IGF1R = IGF1R (Homo sapiens, UniProt P08069); settings: read-out: %Inh IGF1R
Sequence of IGF1R (P08069 31-1367): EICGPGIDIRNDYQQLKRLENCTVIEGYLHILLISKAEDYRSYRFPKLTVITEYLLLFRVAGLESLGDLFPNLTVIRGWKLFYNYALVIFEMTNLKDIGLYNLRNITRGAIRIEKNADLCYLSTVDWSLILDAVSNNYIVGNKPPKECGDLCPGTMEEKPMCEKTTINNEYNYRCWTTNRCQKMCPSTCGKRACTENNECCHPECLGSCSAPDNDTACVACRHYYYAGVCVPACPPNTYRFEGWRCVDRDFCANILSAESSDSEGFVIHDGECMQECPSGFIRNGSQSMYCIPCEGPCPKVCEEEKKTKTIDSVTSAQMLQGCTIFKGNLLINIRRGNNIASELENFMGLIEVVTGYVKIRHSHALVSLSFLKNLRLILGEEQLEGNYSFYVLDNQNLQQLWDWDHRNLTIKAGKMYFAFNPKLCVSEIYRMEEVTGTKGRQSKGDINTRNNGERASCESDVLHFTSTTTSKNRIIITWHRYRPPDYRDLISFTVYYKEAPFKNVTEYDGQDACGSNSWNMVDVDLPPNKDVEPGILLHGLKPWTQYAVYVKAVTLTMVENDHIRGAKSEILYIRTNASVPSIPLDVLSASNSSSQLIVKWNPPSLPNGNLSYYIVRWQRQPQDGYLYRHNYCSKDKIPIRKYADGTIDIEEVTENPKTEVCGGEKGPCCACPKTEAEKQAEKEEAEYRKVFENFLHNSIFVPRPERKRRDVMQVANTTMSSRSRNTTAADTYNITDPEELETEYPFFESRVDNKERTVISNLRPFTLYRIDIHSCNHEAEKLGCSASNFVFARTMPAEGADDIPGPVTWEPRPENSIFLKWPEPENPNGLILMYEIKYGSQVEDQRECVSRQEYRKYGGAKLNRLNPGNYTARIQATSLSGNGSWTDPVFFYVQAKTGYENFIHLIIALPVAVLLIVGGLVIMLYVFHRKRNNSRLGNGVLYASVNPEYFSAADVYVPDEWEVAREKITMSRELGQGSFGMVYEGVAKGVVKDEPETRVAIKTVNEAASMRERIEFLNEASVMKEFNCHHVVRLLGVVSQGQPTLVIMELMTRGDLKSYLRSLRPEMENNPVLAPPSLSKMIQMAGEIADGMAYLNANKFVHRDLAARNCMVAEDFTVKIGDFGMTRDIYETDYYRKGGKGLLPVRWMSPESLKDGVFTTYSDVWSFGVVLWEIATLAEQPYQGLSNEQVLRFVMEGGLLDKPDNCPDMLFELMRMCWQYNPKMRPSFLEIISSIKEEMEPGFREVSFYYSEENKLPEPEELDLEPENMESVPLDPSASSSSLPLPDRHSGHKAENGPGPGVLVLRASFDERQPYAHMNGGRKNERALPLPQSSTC

SMILES | inhibition at 1 µM (DMPK) [%] | inhibition at 1 µM (GRK4) [%] | inhibition at 1 µM (CSF1R-autoinhibited) [%] | inhibition at 1 µM (JNK1) [%] | inhibition at 1 µM (DLK) [%] | inhibition at 1 µM (INSRR) [%] | inhibition at 1 µM (JNK3) [%] | inhibition at 1 µM (IGF1R) [%]
Cn1cc(-c2cnc(N)c3c(-c4ccc5c(c4)CCN5C(=O)Cc4ccccc4)csc23)cn1 [UNC10225012A] | 0 | 7 | 39 | 13 | 0 | 13 | 0 | 0
CS(=O)(=O)Cc1ccc(Nc2nccc(-c3c(-c4cccc(NC(=O)C5CCCCC5)c4)nn4ncccc34)n2)cc1 [UNC10225159A] | 0 | 0 | 35 | 43 | 41 | 20 | 36 | 68
Cc1ccc(NC(=O)Nc2cccc(C(F)(F)F)c2)cc1 [UNC10225187A] | 0 | 0 | 0 | 58 | 0 | 0 | 46 | 0
COc1cccc(OC)c1C(=O)Nc1cccc(-c2nn3ccccc3c2-c2ccnc(Nc3cccc(F)c3)n2)c1 [UNC10225310A] | 2 | 0 | 4 | 44 | 0 | 0 | 0 | 7
O=c1cc(N2CCOCC2)nc2n(Cc3cccc(Cl)c3Cl)c(C3CC3)nn12 [UNC10225469A] | 0 | 0 | 0 | 19 | 0 | 0 | 0 | 0
